{
  "source": "patent US12691071B2",
  "about": "(SHANGHAI YONSUN BIOTECHNOLOGY CO., LTD., priority 2021, dated 2026)",
  "origin": "cited, not measured here",
  "data": [
    {"smiles": "COC[C@@H](NC(C)=O)C(=O)NCc1ccccc1", "note": "[Lacosamide, (2R)-2-acetamido-N-benzyl-3-methoxypropanamide]", "values": [
      {"measurement": "solubility in acetonitrile or ethanol", "setting": "acetonitrile or ethanol", "value": "slightly soluble"},
      {"measurement": "solubility in methanol or acetone", "setting": "methanol or acetone", "value": "easily soluble"}
    ]}
  ]
}
